One assay concerns the target human CD28 Protein, His Tag (Homo sapiens, UniProt P10747). As to the kind of experiment: MST / TRIC. The assay is classed as binding.
Sequence of human CD28 Protein, His Tag (P10747 19-152): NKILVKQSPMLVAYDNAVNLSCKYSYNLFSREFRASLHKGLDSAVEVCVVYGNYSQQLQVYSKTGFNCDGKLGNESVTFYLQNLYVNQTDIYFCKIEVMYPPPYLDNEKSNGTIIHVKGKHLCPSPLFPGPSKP
Sequence of Biotinylated human CD28 protein (His-tagged, AviTag) (P10747 19-152 limits assumed): as the sequence (P10747 19-152) above
In the case of `CC(C)=CCC/C(C)=C/CC/C(C)=C/C=C/C(C)=C/C(=O)O` [2L10, Peretinoin], binding was put at a Kd of 283 ± 398 µM.

On to `O=C(Cc1ccccc1)c1cc(O)c(O)c([N+](=O)[O-])c1` [1F19, Nebicapone], for which the Kd stood at 45.1 ± 68.9 µM.

Take `CNc1nc2ccccc2n2c(-c3ccc(O)c(O)c3)cnc12` [2B06, EAPB 02303]: the affinity, expressed as Kd, was 8.37 ± 4.42 µM.

Compound `CN1c2ccc([N+](=O)[O-])cc2N=C(c2ccc(C(=O)O)cc2)c2cc3c(cc21)C(C)(C)CCC3(C)C` [1K19, HX531] yielded a Kd of 245 ± 151 µM.

In the case of `CCN(CC)C(=O)/C(C#N)=C/c1cc(O)c(O)c([N+](=O)[O-])c1` [1I03, Entacapone], the Kd came to 45.6 ± 52.1 µM.

`Cc1nc(C#Cc2ccnc(Cl)c2)c(C)n1-c1ccc(OC(F)(F)F)cc1` [2B10, CTEP] registered a Kd of 236 ± 110 µM.

For `Nc1c(C(=O)O)c2nc3c(C(=O)O)cccc3oc-2cc1=O` [1O03, Cinnabarinic acid], the Kd worked out at 14.6 ± 8.23 µM.

Another assay concerns the target Biotinylated human CD28 protein (His-tagged, AviTag) (Homo sapiens, UniProt P10747). Kind of assay: SPR. The assay is classed as binding.
In turn, `Cc1nc(C#Cc2ccnc(Cl)c2)c(C)n1-c1ccc(OC(F)(F)F)cc1` [2B10, CTEP] showed a Kd of 181 ± 53 µM.

For the origin of these results see publication doi:10.1101/2025.05.27.656499v1 (biorxiv, 2025).
